In patent publication US10980766B2, “Entacapone-related compounds to treat macular degeneration” (National Institute of Biological Sciences, Beijing, priority 2016, dated 2021):
Marks after values point to notes of the source that are not given here.

Tested on: hypoxia-induced retinopathy zebrafish model
Experiment: hypoxia-induced retinopathy zebrafish model (cobalt chloride induced)
Type: in vivo
Settings: for Blood vessel diameter (mean ± SE): cobalt chloride co-treatment for 4 days, n=10; for Recovery rate (%): blood vessel diameter recovery
Description: We measured the therapeutic efficacy of entacapone and representative entacapone derivatives in hypoxia-induced retinopathy zebrafish model (Cao et al., Hypoxia-induced retinopathy model in adult zebrafish. Nat Protoc 2010, 5 (12), 1903-10).
We measured the therapeutic effect of entacapone and several representative entacapone derivatives on hypoxia-induced retinopathy zebrafish model. The transgenic Tg (flila:EGFP) zebrafish were treated with cobalt chloride for 4 days to induce retinopathy. […] As positive control, zebrafish were treated with cobalt chloride and 100 μL/mL eye-drops augentropfen stulln mono containing 0.3 μg/mL digitalin and 2 μg/mL esculin.

[1] = 10 μM as printed in text, 4 days

CCN(CC)C(=O)/C(C#N)=C/c1cc(O)c(O)c([N+](=O)[O-])c1 [Entacapone, (2E)-2-cyano-3-(3,4-dihydroxy-5-nitrophenyl)-N,N-diethylprop-2-enamide]
Blood vessel diameter (mean ± SE) (5 μM): 19.33 ± 0.52 pixel | Blood vessel diameter (mean ± SE) (5 μM, listed as entacapone): 19.33 pixel | blood vessel diameter recovery rate [1]: 94% | retinal blood diameter [1]: 17.39 | Blood vessel diameter (mean ± SE) (15 μM): 17.39 ± 0.49 pixel | Blood vessel diameter (mean ± SE) (50 μM): 17.47 ± 0.29 pixel | Blood vessel diameter (mean ± SE) (50 μM, listed as entacapone): 17.47 pixel | eye ball volume (in words) (after treatment, compared with model group): larger | Recovery rate (%) (5 μM, 4 days): 58*** % | Recovery rate (%) (5 μM, 4 days, listed as entacapone): 58% | Recovery rate (%) (15 μM, 4 days): 94*** % | Recovery rate (%) (50 μM, 4 days): 93*** % | Recovery rate (%) (50 μM, 4 days, listed as entacapone): 93% | retinal angiogenesis and retina structure (in words) (compared with model group): suppress hypoxia-induced retinal neoangiogenesis and improve histopathology of retinopathy | inner plexiform layer and outer plexiform layer thickness (in words) (treated groups compared with model group): thicker
